Measurements published in BindingDB's records for doi:10.1111/j.1471-4159.1990.tb04946.x (Schering-Plough Research Institute, 1990).

Each molecule was assayed against Hrh3 protein (Rattus norvegicus, UniProt Q5PPG3).
Hrh3 protein, sequence (Q5PPG3 whole entry): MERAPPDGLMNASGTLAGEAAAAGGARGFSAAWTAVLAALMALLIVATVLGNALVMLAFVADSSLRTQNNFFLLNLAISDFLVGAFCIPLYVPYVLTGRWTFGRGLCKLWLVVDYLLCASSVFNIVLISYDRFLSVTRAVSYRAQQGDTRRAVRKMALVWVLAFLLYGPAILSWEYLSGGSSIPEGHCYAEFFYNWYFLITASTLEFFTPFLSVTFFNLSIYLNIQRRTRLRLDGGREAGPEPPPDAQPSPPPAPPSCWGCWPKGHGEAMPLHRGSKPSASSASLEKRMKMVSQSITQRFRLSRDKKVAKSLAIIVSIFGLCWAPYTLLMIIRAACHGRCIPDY
In the case of `COc1ccc(CN(CCN(C)C)c2ccccn2)cc1`, the Ki is reported as > 10000 nM. For `CN/C(=N/CCSCc1nc[nH]c1C)NC#N`, the Ki was 8000 nM. With `CN/C([CH-][N+](=O)[O-])=[NH+]\CCSCc1ccc(CN(C)C)o1` the Ki was > 10000 nM. With `C[C@@H](N)Cc1c[nH]cn1` the Ki was 1.2 nM. Molecule `S=C(NC1CCCCC1)N1CCC(c2cnc[nH]2)CC1` has a Ki of 16 nM. `c1c[nH]cn1` was tested, and the Ki was > 10000 nM. In the case of `Cc1[nH]cnc1CSCCNC(=N)NCCCc1c[nH]cn1` [2-[3-(1H-imidazol-5-yl)propyl]-1-(2-{[(5-methyl-1H-imidazol-4-yl)methyl]sulfanyl}ethyl)guanidine], the Ki is reported as 46 nM. For `C/N=C(\S)NCCSCc1[nH]cnc1C` [CAS_34839-70-8], the Ki was > 10000 nM. In the case of `CNCCc1c[nH]cn1` [N(alpha)-Methylhistamine], the Ki is reported as 0.45 nM. In the case of `NC(Cc1c[nH]cn1)C(=O)O` (centres undefined) [NSC_773], the Ki is reported as > 10000 nM. `CN(C)CCCSC(=N)N` [[3-(carbamimidoylsulfanyl)propyl]dimethylamine] showed a Ki of 440 nM. `NCCc1c[nH]cn1` [[3H]histamine] gave a Ki of 11 nM. In the case of `CNC(=NCCSCc1csc(N=C(N)N)n1)NC#N` [[3H]tiotidine], the Ki is reported as > 10000 nM. For `CN(C)CCC(c1ccc(Cl)cc1)c1ccccn1` (centres undefined) [clorfeniramina], the Ki was > 10000 nM.
